Values after ≈ are worked out from the molar mass of the structure shown. Where two headings read alike, the source gives them in different places.
What was measured:
Assay in all cases: MIC on Iso-Sensitest agar, serial dilution
Assay type in all cases: cell-based
Pseudomonas aeruginosa = tested on: Pseudomonas aeruginosa
Description: (§1) The minimum inhibitory concentrations (MICs) were determined on Iso-Sensitest agar (Oxoid) using serial dilution methods. For each test substance a series of agar plates was prepared which contained concentrations of the active substance which decreased as the dilution factor was doubled. The agar plates were inoculated by means of a multipoint inoculator (Denley). The inocula used were overnight cultures of the pathogens which had previously been diluted to such an extent that each inoculation point contained approx. 10^4 colony-forming units. The inoculated agar plates were incubated at 37° C., and the growth of the germs was read off after approx. 20 hours. The MIC value (μg/ml) indicates the lowest concentration of active compound at which no growth could be observed with the naked eye.

Staphylococcus aureus = conditions: 37° C., approx. 20 hours
Description: as §1

Enterococcus faecalis = tested on: Enterococcus faecalis
Description: as §1, with “hours.” for “hours. The MIC value (μg/ml) indicates the lowest concentration of active compound at which no growth could be observed with the naked eye.”

Providencia spp. = tested on: Providencia spp.
Description: as §1, with “hours.” for “hours. The MIC value (μg/ml) indicates the lowest concentration of active compound at which no growth could be observed with the naked eye.”

E. coli = conditions: Escherichia coli, 20 h, 37° C., approx. 20 hours
Description: as §1, with “hours.” for “hours. The MIC value (μg/ml) indicates the lowest concentration of active compound at which no growth could be observed with the naked eye.”

Klebsiella sp. = tested on: Klebsiella sp.
Description: as §1, with “hours.” for “hours. The MIC value (μg/ml) indicates the lowest concentration of active compound at which no growth could be observed with the naked eye.”

Morganella morg. = tested on: Morganella morg.
Description: as §1, with “hours.” for “hours. The MIC value (μg/ml) indicates the lowest concentration of active compound at which no growth could be observed with the naked eye.”

[1] = Pseudomonas aeruginosa strain Walter, 37° C., approx. 20 hours, read-out: MIC
[2] = Staphylococcus aureus strain 133
[3] = Staphylococcus aureus strain 1756, read-out: MIC
[4] = Enterococcus faecalis, 20 h, Enterococcus faecalis strain 9790, 37° C., approx. 20 hours, read-out: MIC
[5] = Staphylococcus aureus, 20 h, Staphylococcus aureus strain 133
[6] = Enterococcus faecalis, 20 h, Enterococcus faecalis strain 27101, 37° C., approx. 20 hours
[7] = Enterococcus faecalis, 20 h, Enterococcus faecalis strain 9790, 37° C., approx. 20 hours
[8] = Enterococcus faecalis, 20 h, Enterococcus faecalis strain 27101, 37° C., approx. 20 hours, read-out: MIC
[9] = Providencia spp. strain 12012, 37° C., approx. 20 hours, read-out: MIC
[10] = Morganella morg. strain 932, 37° C., approx. 20 hours, read-out: MIC
[11] = Klebsiella sp. strain 8085, 37° C., approx. 20 hours, read-out: MIC

| SMILES | MIC (Pseudomonas aeruginosa; [1]) | MIC (Staphylococcus aureus; [2]) | MIC (Staphylococcus aureus; [3]) | MIC (Enterococcus faecalis; Enterococcus faecalis strain 27101, 37° C., approx. 20 hours, read-out: MIC) | MIC (Enterococcus faecalis; [4]) | MIC (Providencia spp.; Providencia, 20 h) | MIC (E. coli; E. coli strain 455/7) | MIC (Klebsiella sp.; Klebsiella, 20 h) | MIC (Pseudomonas aeruginosa; Pseudomonas aeruginosa, 20 h) | MIC (Staphylococcus aureus; [5]) | MIC (Enterococcus faecalis; [6]) | MIC (E. coli; E. coli strain Neumann) | MIC (Staphylococcus aureus; Staphylococcus aureus, 20 h, Staphylococcus aureus strain 1756) | MIC (Enterococcus faecalis; Enterococcus faecalis, 20 h) | MIC (Enterococcus faecalis; [7]) | MIC (Morganella morg.; Morganella, 20 h) | MIC (Enterococcus faecalis; [8]) | MIC (Providencia spp.; [9]) | MIC (Morganella morg.; [10]) | MIC (Klebsiella sp.; [11]) |
| --- | --- | --- | --- | --- | --- | --- | --- | --- | --- | --- | --- | --- | --- | --- | --- | --- | --- | --- | --- | --- |
| Cl.O=C(O)c1cn(C2CC2)c2c(F)c(N3Cc4cccnc4C3)c(F)cc2c1=O [Example 1B, 1-cyclopropyl-7-(5,7-dihydro-6H-pyrrolo[3,4-b]pyridin-6-yl)-6,8-difluoro-1,4-dihydro-4-oxo-3-quinolinecarboxylic acid hydrochloride] | 4 µg/mL | 0.02 µg/mL | 0.02 µg/mL | 0.01 µg/mL | 0.06 µg/mL | 0.25 µg/mL | 8 µg/mL | 0.25 µg/mL |  |  |  |  |  |  |  |  |  |  |  |  |
| O=C(O)c1cn(C2CC2)c2c(F)c(N3Cc4ccncc4C3)c(F)cc2c1=O [Example 2, 1-cyclopropyl-7-(2,3-dihydro-1H-pyrrolo[3,4-c]pyridin-2-yl)-6,8-difluoro-1,4-dihydro-4-oxo-3-quinolinecarboxylic acid] |  |  | 0.06 µg/mL (≈ 0.157 µM) |  |  | 0.25 µg/mL (≈ 0.652 µM) | 8 µg/mL (≈ 20.9 µM) |  | 1 µg/mL (≈ 2.61 µM) | 0.25 µg/mL (≈ 0.652 µM) | 0.25 µg/mL (≈ 0.652 µM) | 0.06 µg/mL (≈ 0.157 µM) |  |  |  |  |  |  |  |  |
| O=C(O)c1cn(C2CC2)c2nc(N3Cc4cccnc4C3)c(F)cc2c1=O [Example 3] |  |  |  |  |  | 0.5 µg/mL (≈ 1.36 µM) | 128 µg/mL (≈ 349 µM) | 0.5 µg/mL (≈ 1.36 µM) | 2 µg/mL (≈ 5.46 µM) | 0.25 µg/mL (≈ 0.682 µM) |  |  | 0.25 µg/mL (≈ 0.682 µM) | 0.5 µg/mL (≈ 1.36 µM) | 0.5 µg/mL (≈ 1.36 µM) | 0.25 µg/mL (≈ 0.682 µM) |  |  |  |  |
| O=C(O)c1cn(C2CC2)c2cc(N3Cc4ccncc4C3)c(F)cc2c1=O [Example 4, 1-cyclopropyl-7-(2,3-dihydro-1H-pyrrolo[3,4-c]pyridin-2-yl)-6-fluoro-1,4-dihydro-4-oxo-3-quinolinecarboxylic acid] | 4 µg/mL (≈ 10.9 µM) | 0.06 µg/mL (≈ 0.164 µM) | 0.06 µg/mL (≈ 0.164 µM) |  | 0.25 µg/mL (≈ 0.684 µM) |  | 128 µg/mL (≈ 350 µM) |  |  |  |  | 0.06 µg/mL (≈ 0.164 µM) |  |  |  |  | 0.25 µg/mL (≈ 0.684 µM) | 0.5 µg/mL (≈ 1.37 µM) | 0.5 µg/mL (≈ 1.37 µM) | 0.25 µg/mL (≈ 0.684 µM) |
| O=C(O)c1cn(C2CC2)c2cc(N3Cc4cccnc4C3)c(F)cc2c1=O [Example 5, 1-cyclopropyl-7-(5,7-dihydro-6H-pyrrolo[3,4-b]-pyridin-6-yl)-6-fluoro-1,4-dihydro-4-oxo-3-quinolinecarboxylic acid] | 128 µg/mL (≈ 350 µM) | 0.13 µg/mL (≈ 0.356 µM) | 0.13 µg/mL (≈ 0.356 µM) |  | 0.25 µg/mL (≈ 0.684 µM) |  | 128 µg/mL (≈ 350 µM) | 1 µg/mL (≈ 2.74 µM) |  |  |  | 0.13 µg/mL (≈ 0.356 µM) |  |  |  |  | 0.25 µg/mL (≈ 0.684 µM) | 0.5 µg/mL (≈ 1.37 µM) | 0.13 µg/mL (≈ 0.356 µM) |  |
| O=C(O)c1cn(C2CC2)c2nc(N3Cc4ccncc4C3)c(F)cc2c1=O [Example 6, 1-cyclopropyl-7-(2,3-dihydro-1H-pyrrolo[3,4-c]pyridin-2-yl]-6-fluoro-1,4-dihydro-4-oxo-1,8-naphthyridine-3-carboxylic acid] | 16 µg/mL (≈ 43.7 µM) | 0.25 µg/mL (≈ 0.682 µM) | 0.25 µg/mL (≈ 0.682 µM) |  |  |  | 128 µg/mL (≈ 349 µM) | 0.5 µg/mL (≈ 1.36 µM) |  |  |  | 0.13 µg/mL (≈ 0.355 µM) |  | 0.5 µg/mL (≈ 1.36 µM) | 0.5 µg/mL (≈ 1.36 µM) |  |  | 1 µg/mL (≈ 2.73 µM) | 0.25 µg/mL (≈ 0.682 µM) |  |
| CN1CCC2=C(C1)CN(c1c(F)cc3c(=O)c(C(=O)O)cn(C4CC4)c3c1F)C2.Cl [Example 7B, 1-cyclopropyl-6,8-difluoro-1,4-dihydro-7-(5-methyl-2,3,4,5,6,7-hexahydro-1H-pyrrolo[3,4-c]-pyridin-2-yl)-4-oxo-3-quinolinecarboxylic acid hydrochloride] |  | 0.06 µg/mL | 0.06 µg/mL |  |  |  | 2 µg/mL |  | 1 µg/mL |  |  | 0.02 µg/mL |  |  |  |  |  |  | 0.03 µg/mL | 0.06 µg/mL |
| CN1CCC2=C(C1)CN(c1c(F)cc3c(=O)c(C(=O)O)cn(C4CC4)c3c1Cl)C2 [Example 8, 8-chloro-1-cyclopropyl-6-fluoro-1,4-dihydro-7-(5-methyl-2,3,4,5,6,7-hexahydro-1H-pyrrolo[3,4-c]pyridin-2-yl)-4-oxo-3-quinolinecarboxylic acid] |  | 0.03 µg/mL (≈ 0.0718 µM) | 0.03 µg/mL (≈ 0.0718 µM) |  | 0.06 µg/mL (≈ 0.144 µM) |  | 1 µg/mL (≈ 2.39 µM) |  | 0.5 µg/mL (≈ 1.2 µM) |  |  | 0.03 µg/mL (≈ 0.0718 µM) |  |  |  |  | 0.06 µg/mL (≈ 0.144 µM) | 0.13 µg/mL (≈ 0.311 µM) | 0.06 µg/mL (≈ 0.144 µM) | 0.06 µg/mL (≈ 0.144 µM) |
| Cc1c(F)c(N2CC3=C(CN(C)CC3)C2)cc2c1c(=O)c(C(=O)O)cn2-c1ccc(F)cc1F [Example 9, 1-(2,4-difluorophenyl)-6-fluoro-1,4-dihydro-5-methyl-7-(5-methyl-2,3,4,5,6,7-hexahydro-1H-pyrrolo[3,4-c]-pyridin-2-yl)-4-oxo-3-quinolinecarboxylic acid] | 128 µg/mL (≈ 273 µM) | 0.06 µg/mL (≈ 0.128 µM) | 0.06 µg/mL (≈ 0.128 µM) |  |  | 0.5 µg/mL (≈ 1.07 µM) | 128 µg/mL (≈ 273 µM) | 0.5 µg/mL (≈ 1.07 µM) |  |  |  | 0.25 µg/mL (≈ 0.533 µM) |  | 0.5 µg/mL (≈ 1.07 µM) | 0.5 µg/mL (≈ 1.07 µM) | 0.5 µg/mL (≈ 1.07 µM) |  |  |  |  |
| Nc1cccc2c1CN(c1c(F)cc3c(=O)c(C(=O)O)cn(C4CC4)c3c1F)C2 [Ref., 7-(4-amino-1,3-dihydro-isoindol-2-yl)-1-cyclopropyl-6,8-difluoro-1,4-dihydro-4-oxo-3-quinolinecarboxylic acid, reference compound] | 128 µg/mL (≈ 322 µM) | 0.03 µg/mL (≈ 0.0755 µM) | 0.03 µg/mL (≈ 0.0755 µM) |  |  | 1 µg/mL (≈ 2.52 µM) | 128 µg/mL (≈ 322 µM) |  |  |  | 0.5 µg/mL (≈ 1.26 µM) | 0.5 µg/mL (≈ 1.26 µM) |  |  | 1 µg/mL (≈ 2.52 µM) | 1 µg/mL (≈ 2.52 µM) |  |  |  | 4 µg/mL (≈ 10.1 µM) |

— patent US5371090A, “Naphthyridonecarboxylic acid derivatives” (Bayer Aktiengesellschaft, priority 1991, dated 1994)
